Data set [1] is described as follows: Selectivity index, ratio of CC50 for human HePAD38 cells to EC50 for hepatitis B virus infected in HePAD38 cells. It counts as toxicity, cell-based. Particulars: read-out: Ratio CC50/EC50.
The nature of data set [2]: Cytotoxicity against human HePAD38 cells by CCK8 assay. The format is toxicity, cell-based.
The next data set has as its system Hepatitis B virus. Kind of data set: Antiviral activity against Hepatitis B virus infected in human HePAD38 cells assessed as inhibition of viral DNA replication by qPCR analysis. It counts as functional, organism-based.
The next data set addresses Core antigen (Hepatitis B virus, UniProt Q03732). Kind of data set: Inhibition of Hepatitis B virus Capsid protein assembly activity by fluorescence based analysis.
Data set [3] can be described thus: Octanol/water partition coefficient, log P of the compound. The format is physicochemical.
Data set [4] can be described thus: Cmax in male Beagle dog at 1.5 mg/kg, po administered via gavage and measured after 24 hrs by LC-MS/MS analysis. Particulars: in vivo. It counts as ADME, organism-based, Canis lupus familiaris.
Data set [5] in a line: AUC (0 to infinity) in male Beagle dog at 1.5 mg/kg, po administered via gavage and measured after 24 hrs by LC-MS/MS analysis. It counts as ADME, organism-based, Canis lupus familiaris. Conditions: in vivo.
A short description of data set [6]: Metabolic stability in human plasma assessed as parent compound remaining measured after 10 mins. It counts as ADME, cell-free. Particulars: read-out: Stability.
The nature of data set [7]: Metabolic stability in human plasma assessed as parent compound remaining measured after 30 mins. The format is ADME, cell-free. Particulars: read-out: Stability.
The nature of data set [8]: Metabolic stability in human plasma assessed as half-life. The format is ADME, cell-free.
A short description of data set [9]: Metabolic stability in human plasma assessed as parent compound remaining measured after 60 mins. The format is ADME, cell-free. Particulars: read-out: Stability.
Data set [10] can be described thus: Metabolic stability in human liver assessed as intrinsic clearance. The format is ADME, tissue-based. Particulars: read-out: CLH.
Data set [11] in a line: Metabolic stability in human liver microsomes assessed as parent compound remaining measured after 60 mins in presence of NADPH co-factor. Conditions: read-out: Stability. The format is ADME, Microsome.
Data set [12] can be described thus: Metabolic stability in human liver microsomes assessed as half-life. The format is ADME, Microsome.
Data set [13] is described as follows: Metabolic stability in human plasma assessed as parent compound remaining measured after 120 mins. The format is ADME, cell-free. Conditions: read-out: Stability.
The nature of data set [14]: Metabolic stability in human plasma assessed as parent compound remaining measured immediately. It counts as ADME, cell-free. Particulars: read-out: Stability.
A short description of data set [15]: Metabolic stability in human liver microsomes assessed as intrinsic clearance. Conditions: read-out: CLH. The format is ADME, Microsome.
Data set [16] in a line: Metabolic stability in human liver microsomes assessed as parent compound remaining measured after 60 mins in absence of NADPH co-factor. It counts as ADME, Microsome. Particulars: read-out: Stability.

Results on 19 compounds are retold here after ChEMBL document CHEMBL6127026, “Design, synthesis and anti-HBV activity study of novel HBV capsid assembly modulators” (Bioorg Med Chem Lett, 2024).

Sequence of Core antigen (Q03732 whole entry): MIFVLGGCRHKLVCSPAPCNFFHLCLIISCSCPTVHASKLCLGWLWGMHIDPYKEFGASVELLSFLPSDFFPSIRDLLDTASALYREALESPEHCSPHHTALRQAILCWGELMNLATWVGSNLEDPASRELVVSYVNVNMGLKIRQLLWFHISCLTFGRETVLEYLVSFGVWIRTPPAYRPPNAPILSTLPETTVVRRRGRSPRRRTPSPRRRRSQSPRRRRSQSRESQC

Regarding `O=C(NC1CCCC1)c1cc(S(=O)(=O)Nc2ccc(F)c(Cl)c2)cc2c1OCCO2`, the selectivity ratio in data set [1] was more than 93. In data set [2], this compound yielded a CC50 of more than 100 µM. For the same compound, the EC50 in the data set with Hepatitis B virus was 1.07 µM.
Take `O=C(Nc1ccc(F)cc1)c1cc(S(=O)(=O)NC2CCCC2)cc2c1OCCO2`: the selectivity ratio in data set [1] was more than 98.2. The same compound showed a CC50 in data set [2] of more than 100 µM. Further, the EC50 with Hepatitis B virus was found to be 1 µM.
`O=C(Nc1ccc(F)c(Cl)c1)c1cc(S(=O)(=O)NC2CCCC2)cc2c1OCCO2`: the selectivity ratio in data set [1] is 95.5. This compound came in with a CC50 in data set [2] of 48.2 µM. Besides, the EC50 with Hepatitis B virus was found to be 0.5 µM. The same compound registered an IC50 against Core antigen of 4.22 µM.
On to `O=C(Nc1cc(F)c(F)c(F)c1)c1ccc(F)c(S(=O)(=O)N2CCC(O)CC2)c1`, for which the selectivity ratio in [1] was found to be 88.4. Moreover, the CC50 in data set [2] came to 20.8 µM. In data set [3], this compound gave a logP of 1.75. In addition, the EC50 in the data set with Hepatitis B virus was found to be 0.29 µM. Further, the highest level in data set [4] (Cmax) was 560 ng/mL. In [5], this compound registered an AUC(0-inf) of 3500 ng·h/mL.
Turning to `O=C(NC1CCCC1)c1cc2c(c(S(=O)(=O)Nc3cc(F)c(F)c(F)c3)c1)OCCO2`, the selectivity ratio in data set [1] amounted to 2.79. In data set [2], this compound had a CC50 of 20.5 µM. For the same compound, the EC50 with Hepatitis B virus amounted to 7.36 µM.
For `CC(C)[N+](C)(CCOC(=O)C1c2ccccc2Oc2ccccc21)C(C)C.[Br-]` [PROPANTHELINE BROMIDE], the remaining at 10 min in [6] came to 52%. The remaining at 0.5 h in data set [7] stood at 8.3%. Moreover, in data set [8], the half-life turned out to be 7.4 min. For the same compound, in data set [9], the remaining at 1 h was 0.4%.
For the compound `O=C(O)Cc1ccccc1Nc1c(Cl)cccc1Cl` [DICLOFENAC], the CLint scaled in [10] is 232 mL/min/kg.
`O=C(NC1CCCC1)c1cc(S(=O)(=O)NC2CCCC2)cc2c1OCCO2` gave a CC50 in data set [2] of more than 100 µM. In the data set with Hepatitis B virus, the EC50 was more than 20 µM.
Turning to `O=C(Nc1cc(F)c(F)c(F)c1)c1cc(S(=O)(=O)NC2CCCC2)cc2c1OCCO2`, the results for the remaining at 1 h in [11], in [16] and in [9] were 5%, 84.1% and 115%, respectively. For the same compound, the selectivity ratio in [1] was more than 419. The same compound yielded a CC50 in data set [2] of more than 100 µM. Also, the half-life in data set [12] is 13.9 min; in [8], more than 289 min. Also, in [6], the remaining at 10 min is 115%. The logP in [3] (read-out: logP) came out at 1.59. The CLint scaled in data set [10] was found to be 89.8 mL/min/kg. Besides, the EC50 in the data set on Hepatitis B virus is 0.24 µM. Further, in [13], the remaining at 2 h is 99.4%. The remaining at 0 min in data set [14] came to 100%. Moreover, the microsomal CLint in data set [15] was determined as 99.8 µL/min/mg. In addition, the IC50 against Core antigen was 1.45 µM. In addition, the remaining at 0.5 h in data set [7] stood at 112%.
As for `O=C(NC1CCCC1)c1cc2c(c(S(=O)(=O)Nc3ccc(F)c(Cl)c3)c1)OCCO2`, in [2], the CC50 was more than 100 µM. For the same compound, the EC50 in the data set on Hepatitis B virus is more than 20 µM.
Consider `O=C(Nc1ccc(F)c(Cl)c1)c1cc(S(=O)(=O)Nc2ccsc2)cc2c1OCCO2`, for which the selectivity ratio in [1] is more than 116. Further, the CC50 in [2] was more than 100 µM. Also, the EC50 in the data set on Hepatitis B virus worked out at 0.86 µM.
In the same order, the values of `O=C(Nc1ccc(F)c(Cl)c1)c1cc2c(c(S(=O)(=O)Nc3ccc(F)c(Cl)c3)c1)OCCO2` are 1.46, 6.64 µM and 4.56 µM.
In the case of `O=C(Nc1cc(F)cc(F)c1)c1cc(S(=O)(=O)NC2CCCC2)cc2c1OCCO2`, in [1], the selectivity ratio is more than 232. This compound yielded a CC50 in data set [2] of more than 100 µM. Also, the EC50 in the data set on Hepatitis B virus is 0.43 µM.
`O=C(c1cc(S(=O)(=O)NC2CCCC2)cc2c1OCCO2)N1CCC(O)CC1`: the CC50 in data set [2] was more than 100 µM. Moreover, in the data set on Hepatitis B virus, the EC50 was more than 20 µM.
As for `Cc1cc(NC(=O)c2cc(S(=O)(=O)NC3CCCC3)cc3c2OCCO3)ccc1F`, in [1], the selectivity ratio amounted to 104. Also, it took 51 µM to reach half-maximal cytotoxicity in data set [2] (CC50). Further, the EC50 in the data set on Hepatitis B virus stood at 0.49 µM.
Turning to `O=C(NC1CCCC1)c1cc(S(=O)(=O)Nc2cc(F)c(F)c(F)c2)cc2c1OCCO2`, in data set [2], the CC50 was more than 100 µM. The EC50 with Hepatitis B virus is more than 20 µM.
For the compound `O=C(Nc1ccc(F)c(F)c1)c1cc(S(=O)(=O)NC2CCCC2)cc2c1OCCO2`, the selectivity ratio in data set [1] came to 89. The CC50 in data set [2] amounted to 81.4 µM. Also, the EC50 in the data set on Hepatitis B virus was determined as 0.91 µM.
`O=C(Nc1ccc(F)c(Cl)c1)c1cc(S(=O)(=O)Nc2nccs2)cc2c1OCCO2` had a CC50 in data set [2] of more than 100 µM. In addition, in the data set with Hepatitis B virus, the EC50 was more than 20 µM.
With `N#Cc1cc(NC(=O)c2cc(S(=O)(=O)NC3CCCC3)cc3c2OCCO3)ccc1F`, the selectivity ratio in data set [1] was more than 65.3. The same compound registered a CC50 in [2] of more than 100 µM. Further, the EC50 with Hepatitis B virus was found to be 1.53 µM.
